What follows are compounds tested against MCH receptor (Homo sapiens, UniProt Q99705) (assay: High throughput functional screening FLIPR/FDSS6000: inhibition of MCH-evoked intracellular Ca2+ changes). Details: class by percent of control at 10^-7 M or IC50.
Format: cell-based
In short: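 Cells expressing constitutively active MCH receptor, loaded with 4 μM Fluo4-AM for 1 h at 37 °C, were pretreated 3 min with compound, then challenged with MCH (50 nM for antagonist testing). MCH-evoked [Ca2+]i transients followed by FLIPR or FDSS (ex 488/em 530 nm) over 290 s.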
`CCOC(=O)c1cccc(NC(=S)NC[C@H]2CC[C@@H](Nc3nc(N(C)C)c4ccccc4n3)CC2)c1` [compound 730] was tested, and the class was 3 (Class 3: The value of percent of control at 10^−7 M was more than 60% or the value of IC50 was more than 200 nM.).
`CCc1cccc(NC(=S)NC[C@H]2CC[C@@H](Nc3nc(N(C)C)c4ccccc4n3)CC2)c1` [compound 731] was tested, and the class was 3 (Class 3: The value of percent of control at 10^−7 M was more than 60% or the value of IC50 was more than 200 nM.).
With `CN(C)c1nc(N[C@H]2CC[C@@H](CNC(=S)NCc3cccc(F)c3)CC2)nc2ccccc12` [compound 732] the class was 3 (Class 3: The value of percent of control at 10^−7 M was more than 60% or the value of IC50 was more than 200 nM.).
With `COc1cccc(CNC(=S)NC[C@H]2CC[C@@H](Nc3nc(N(C)C)c4ccccc4n3)CC2)c1` [compound 733] the class was 3 (Class 3: The value of percent of control at 10^−7 M was more than 60% or the value of IC50 was more than 200 nM.).
With `Cc1cccc(CNC(=S)NC[C@H]2CC[C@@H](Nc3nc(N(C)C)c4ccccc4n3)CC2)c1` [compound 734] the class was 3 (Class 3: The value of percent of control at 10^−7 M was more than 60% or the value of IC50 was more than 200 nM.).
In the case of `CN(C)c1nc(N[C@H]2CC[C@@H](CNC(=S)Nc3ccc(Br)c(Cl)c3)CC2)nc2ccccc12` [compound 735], the class is reported as 3 (Class 3: The value of percent of control at 10^−7 M was more than 60% or the value of IC50 was more than 200 nM.).
For `Cc1cc(NC(=S)NC[C@H]2CC[C@@H](Nc3nc(N(C)C)c4ccccc4n3)CC2)ccc1Br` [compound 736], the class was 3 (Class 3: The value of percent of control at 10^−7 M was more than 60% or the value of IC50 was more than 200 nM.).
With `CN(C)c1nc(N[C@H]2CC[C@@H](CNC(=S)Nc3ccc(Cl)cc3C(F)(F)F)CC2)nc2ccccc12` [compound 737] the class was 3 (Class 3: The value of percent of control at 10^−7 M was more than 60% or the value of IC50 was more than 200 nM.).
For `CCCCCCCCCCc1ccc(NC(=S)NC[C@H]2CC[C@@H](Nc3nc(N(C)C)c4ccccc4n3)CC2)cc1` [compound 738], the class was 3 (Class 3: The value of percent of control at 10^−7 M was more than 60% or the value of IC50 was more than 200 nM.).
With `Cc1cc(F)ccc1NC(=S)NC[C@H]1CC[C@@H](Nc2nc(N(C)C)c3ccccc3n2)CC1` [compound 739] the class was 3 (Class 3: The value of percent of control at 10^−7 M was more than 60% or the value of IC50 was more than 200 nM.).
With `CN(C)c1nc(N[C@H]2CC[C@@H](CNC(=S)Nc3ccc(Oc4ccc([N+](=O)[O-])cc4)cc3)CC2)nc2ccccc12` [compound 740] the class was 3 (Class 3: The value of percent of control at 10^−7 M was more than 60% or the value of IC50 was more than 200 nM.).
For `CN(C)c1nc(N[C@H]2CC[C@@H](CNC(=S)Nc3ccc(Sc4ccc([N+](=O)[O-])cc4)cc3)CC2)nc2ccccc12` [compound 741], the class was 3 (Class 3: The value of percent of control at 10^−7 M was more than 60% or the value of IC50 was more than 200 nM.).
With `CN(C)c1nc(N[C@H]2CC[C@@H](CNC(=S)Nc3ccc(S(N)(=O)=O)cc3)CC2)nc2ccccc12` [compound 742] the class was 3 (Class 3: The value of percent of control at 10^−7 M was more than 60% or the value of IC50 was more than 200 nM.).
In the case of `COc1ccc(NC(=S)NC[C@H]2CC[C@@H](Nc3nc(N(C)C)c4ccccc4n3)CC2)c(C)c1` [compound 743], the class is reported as 2 (Class 2: The value of percent of control at 10^−7 M was from 40% to 60% or the value of IC50 was from 50 nM to 200 nM.).
In the case of `Cc1ccc(CCNC(=S)NC[C@H]2CC[C@@H](Nc3nc(N(C)C)c4ccccc4n3)CC2)cc1` [compound 744], the class is reported as 3 (Class 3: The value of percent of control at 10^−7 M was more than 60% or the value of IC50 was more than 200 nM.).
In the case of `CN(C)c1nc(N[C@H]2CC[C@@H](CNC(=S)Nc3ccc(Oc4ccccc4)cc3)CC2)nc2ccccc12` [compound 745], the class is reported as 3 (Class 3: The value of percent of control at 10^−7 M was more than 60% or the value of IC50 was more than 200 nM.).
For `COc1cc(OC)c(NC(=S)NC[C@H]2CC[C@@H](Nc3nc(N(C)C)c4ccccc4n3)CC2)cc1Cl` [compound 746], the class was 3 (Class 3: The value of percent of control at 10^−7 M was more than 60% or the value of IC50 was more than 200 nM.).
`CN(C)c1nc(N[C@H]2CC[C@@H](CNC(=S)Nc3ccc4c(c3)CCC4)CC2)nc2ccccc12` [compound 747] was tested, and the class was 3 (Class 3: The value of percent of control at 10^−7 M was more than 60% or the value of IC50 was more than 200 nM.).
For `CN(C)c1nc(N[C@H]2CC[C@@H](CNC(=S)NC3CCCCCC3)CC2)nc2ccccc12` [compound 748], the class was 3 (Class 3: The value of percent of control at 10^−7 M was more than 60% or the value of IC50 was more than 200 nM.).
For `C[C@@H](NC(=S)NC[C@H]1CC[C@@H](Nc2nc(N(C)C)c3ccccc3n2)CC1)c1ccccc1` [compound 749], the class was 3 (Class 3: The value of percent of control at 10^−7 M was more than 60% or the value of IC50 was more than 200 nM.).
`CCCCOC(=O)c1ccccc1NC(=O)NC[C@H]1CC[C@@H](Nc2nc(N(C)C)c3ccccc3n2)CC1` [compound 750] was tested, and the class was 3 (Class 3: The value of percent of control at 10^−7 M was more than 60% or the value of IC50 was more than 200 nM.).
For `COC(=O)c1cc(NC(=O)NC[C@H]2CC[C@@H](Nc3nc(N(C)C)c4ccccc4n3)CC2)cc(C(=O)OC)c1` [compound 751], the class was 3 (Class 3: The value of percent of control at 10^−7 M was more than 60% or the value of IC50 was more than 200 nM.).
In the case of `CN(C)c1nc(N[C@H]2CC[C@@H](CNC(=O)Nc3ccc(OC(F)(F)F)cc3)CC2)nc2ccccc12` [compound 752], the class is reported as 3 (Class 3: The value of percent of control at 10^−7 M was more than 60% or the value of IC50 was more than 200 nM.).
For `Cc1cc(Br)cc(C)c1NC(=O)NC[C@H]1CC[C@@H](Nc2nc(N(C)C)c3ccccc3n2)CC1` [compound 753, N-(4-bromo-2,6-dimethylphenyl)-N′-[(cis-4-{[4-(dimethylamino)quinazolin-2-yl]amino}cyclohexyl)methyl]urea], the class was 1 (Class 1: The value of percent of control at 10^−7 M was less than 40% or the value of IC50 was less than 50 nM.).
In the case of `Cc1cc(Br)ccc1NC(=O)NC[C@H]1CC[C@@H](Nc2nc(N(C)C)c3ccccc3n2)CC1` [compound 754], the class is reported as 2 (Class 2: The value of percent of control at 10^−7 M was from 40% to 60% or the value of IC50 was from 50 nM to 200 nM.).
`CN(C)c1nc(N[C@H]2CC[C@@H](CNC(=O)Nc3ccc4c(c3)C(F)(F)OC(F)(F)O4)CC2)nc2ccccc12` [compound 755, N-[(cis-4-{[4-(dimethylamino)quinazolin-2-yl]amino}-cyclohexyl)methyl]-N′-(2,2,4,4,-tetrafluoro-4H-1,3-benzodioxin-6-yl)urea] was tested, and the class was 3 (Class 3: The value of percent of control at 10^−7 M was more than 60% or the value of IC50 was more than 200 nM.).
In the case of `CN(C)c1nc(N[C@H]2CC[C@@H](CNC(=O)NCCc3cccs3)CC2)nc2ccccc12` [compound 757], the class is reported as 3 (Class 3: The value of percent of control at 10^−7 M was more than 60% or the value of IC50 was more than 200 nM.).
For `CN(C)c1nc(N[C@H]2CC[C@@H](CNC(=O)Nc3ccc4c(c3)OCCO4)CC2)nc2ccccc12` [compound 758], the class was 3 (Class 3: The value of percent of control at 10^−7 M was more than 60% or the value of IC50 was more than 200 nM.).
